We go through four molecules from patent US5112805A, “Pharmaceutical preparation for promoting epithelial healing and prevention of epithelial destruction” (Labsystems, Oy, priority 1989, dated 1992).

Series [1] has as its system proteolytic plasmin-like activity in tear fluid. The experiment in a line: Radial caseinolysis assay of tear fluid proteolytic activity with inhibitors added. Type of series: biochemical, human. On the procedure: (§1) Assay of proteolytic activity in tear fluids. Tear fluid was collected into a glass capillary. Proteolytic activity, using an 8 ul specimen of tear fluid, was measured by the radial caseinolysis procedure^23, using agarose gel and bovine milk casein as substrate. Human plasmin (20 casein units per mg; Kabi Diagnostica, Stockholm, Sweden) was used as standard. The results are expressed as micrograms of plasmin-like activity per milliliter tear fluid. Plasminogen activator levels were determined according to Saksela^23 using plasminogen-containing casein-agarose gels and urokinase (50 000 Plough units/ml; Calbiochem) as standard.
Proteinase inhibitors-Aprotinin (20 000 IU/ml Trasylol®, Bayer), L-cysteine (0.15M; E. Merck), heparin (2500 IU/ml Medica).

For the next series, the system named is corneal lesions. The series can be described thus: Topical treatment of patients with corneal lesions, clinical response. Type of series: in vivo, human. Conditions: for clinical effect: used at first in patients 1, 3 and 4; for therapeutic effect: patient with bilateral acid corrosion. On the procedure: Patients and control individuals. All patients reported here were treated in the Eye Clinic of the Helsinki Central University Hospital.
(§2) Proteinase inhibitor and fibronectin treatment. The patients received topical aprotinin (20 or 40 IU/ml), diluted from the stock preparation in sterile saline or commercially obtained wetting agent (Liquifilm Tears; Allergan), 1-2 drops (50 ul each) at 3 hour intervals. When applied, fibronectin (200 ug/ml) was administered 2-3 minutes after aprotinin treatment, also using 1-2 drops at a time.
After the success with this index case and similar experience with the first few additional patients the following therapeutic regimen was adopted. Patients with corneal ulcers were first treated for four days with conventional therapy including antimicrobial drugs according to laboratory findings or clinical picture. If no response was seen and if proteolytic activity was detected in the tear fluid, aprotinin therapy was initiated. In some cases with low activity in the initial or later tear fluid specimens, aprotinin was combined with topical fibronectin. In addition, in certain patients, such as in a patient with bilateral acid corrosion, no proteolytic activity was detected immediately after injury. […] In zymographic analysis the proteinase in the patient's tear fluid specimen comigrated with plasmin (data not shown). […] This patient will be described in detail elsewhere. However, a large proportion of patients with therapy-resistant corneal lesions of various categories (Table 2) had proteolytic activity and the above regimen was followed.

For series [2], the system named is tear fluid plasmin-like activity. The series can be described thus: Tear fluid plasmin-like activity of patients during therapy. It is filed as in vivo, human. On the procedure:
as §1, §2

Series [3] in a line: Side effects of aprotinin eye drops in patients. It is filed as in vivo, human. On the procedure:
as §2

A further series has as its system epithelium. The following applies: published report on clinical use of fibronectin; cited from earlier work.
Setting [4] is: Patient 1 tear fluid (11.6 without inhibitor), aprotinin 20 IU/ml, L-cysteine 0.075 M, heparin 1250 IU/ml.
Setting [5] is: Patient 2 tear fluid (7.0 without inhibitor), aprotinin 20 IU/ml, L-cysteine 0.075 M, heparin 1250 IU/ml.
Where [6] appears, read: Patient 8 tear fluid (6.0 without inhibitor), aprotinin 10 IU/ml, L-cysteine 0.075 M, heparin 1250 IU/ml.
The mark [7] stands for this setting: Patient 9 tear fluid (6.3 without inhibitor), aprotinin 10 IU/ml, L-cysteine 0.075 M, heparin 1250 IU/ml.
[8] abbreviates: tear fluid of patients 1, 2, 8 and 9 in vitro.
The mark [9] stands for this setting: tear fluids of patients with corneal lesions, in the assay.

Entries after “also recorded” stand apart in the source; their conditions may differ.

For the molecule `N[C@@H](CS)C(=O)O` [L-cysteine], the Proteolytic plasmin-like activity in series [1] (setting [4]) turned out to be 10.1 µg/mL; in series [1] (setting [5]), 7.2 µg/mL; in series [1] (setting [6]), 4.9 µg/mL; in series [1] (setting [7]) it was 5.5 µg/mL. Also, the “effect on the proteolytic activity of tear fluid” value (from here on “effect … of tear fluid”) in series [1] (setting [8]) is “very little effect”; in series [1] (setting [9]) it was “minimal inhibitory effect”. Besides, in the series on corneal lesions (patient 4, topical L-cysteine therapy, no detectable microbial pathogens), the “course of cornea during therapy” value is listed as “perforated spontaneously”. Besides, the clinical effect result in the series with corneal lesions is on record as “little or no clinical effect”.

For aprotinin, the Proteolytic plasmin-like activity was less than 0.1 µg/mL in series [1] (setting [4]); less than 0.1 µg/mL in series [1] (setting [5]); less than 0.1 µg/mL in series [1] (Patient 7 tear fluid (7.6 without inhibitor), aprotinin 10 IU/ml); less than 0.1 µg/mL in series [1] (setting [6]); less than 0.1 µg/mL in series [1] (setting [7]); less than 0.1 µg/mL in series [1] (Patient 15 tear fluid (4.2 without inhibitor), aprotinin 10 IU/ml). Also, the “effect … of tear fluid” value in series [1] (setting [9]) is given as “can be inhibited”; in series [1] (tear fluids of patients with corneal lesions, in the assay, listed as Aprotinin) it was “inhibit effectively”. For the same molecule, the Tearfluid plasmin-like activity was less than 0.1 µg/mL in series [2] (patient 2, 25 Nov, 7.0 on 1 Nov); less than 0.1 µg/mL in series [2] (patient 3, 4 Dec, 6.8 on 16 Nov); less than 0.1 µg/mL in series [2] (patient 4, 20 Dec, 5.5 on 25 Nov); 4.7 µg/mL in series [2] (patient 7, 10 Jan, 7.6 on 8 Jan, aprotinin 20 IU/ml from Jan 8); 12.0 µg/mL in series [2] (patient 7, 16 Jan, aprotinin 20 IU/ml from Jan 8); 12.5 µg/mL in series [2] (patient 7, 20 Jan, aprotinin 20 IU/ml from Jan 8). Besides, the Tearfluid plasmin-like activity in series [2] (patient 7, 22 Jan, aprotinin 40 IU/ml hourly from 20 Jan, fibronectin added Jan 22) was 3.3 µg/mL; in series [2] (patient 8, 14 Feb), less than 0.1 µg/mL; in series [2] (patient 8, 29 Jan, 6.0 on 6 Jan, 4.5 on 8 Jan during antibiotic therapy), 0.5 µg/mL; in series [2] (patient 8, 31 Jan) it was 0.5 µg/mL; in series [2] (patient 9, 13 Feb) it was less than 0.1 µg/mL; in series [2] (patient 9, 20 Jan, 6.3 on 16 Jan, with topical antibiotics) it was 3.0 µg/mL. Also, the Tearfluid plasmin-like activity in series [2] (patient 9, 30 Jan) is less than 0.1 µg/mL; in series [2] (patient 10, 22 Jan, 10.3 on 20 Jan), 2.4 µg/mL; in series [2] (patient 10, 24 Jan), less than 0.1 µg/mL; in series [2] (patient 11, 9 Feb), less than 0.1 µg/mL; in series [2] (patient 11, 30 Jan, 3.1 on 21 Jan) it was 1.9 µg/mL; in series [2] (patient 12, 6 Feb) it was less than 0.1 µg/mL. In addition, the Tearfluid plasmin-like activity in series [2] (patient 12, 24 Jan, 20.0 on 22 Jan, with antibiotics) is 12.4 µg/mL; in series [2] (patient 13, 3 Feb, 6.3 on 31 Jan, with topical acyclovir, antibiotics), 0.5 µg/mL; in series [2] (patient 13, 19 Feb) it was less than 0.1 µg/mL. For the same molecule, the “outcome and complications of longest treatment” value in series [3] (aprotinin eye drops, patient 4 (dry eyes, spontaneous perforation), five weeks) is “good results without corneal or other complications”. The side effects entry in series [3] (topical aprotinin therapy, patients) is listed as “No side effects”. For the same molecule, the response to therapy entry is given as “resulted in corneal epithelialization; also recorded: responded quickly” in the series with corneal lesions (all fifteen patients with proteolytic activity in tear fluid and corneal lesion, aprotinin, in some cases combined with fibronectin); “clear improvement” with corneal lesions (patient 13, herpes keratitis, new erosion, with topical acyclovir, antibiotics). The same molecule gave a time to response with corneal lesions (patient 1, novel therapy (aprotinin with fibronectin), after nine weeks of unsuccessful conventional treatment) of no more than 24 h. In addition, in the series with corneal lesions (patient 2, disciform keratitis, recurrent erosion for 1 week), the “Recovery in” value came out at 4 days. For the same molecule, the clinical response entry in the series with corneal lesions (patient 3, corneal erosion caused by soft contact lens, proteinase inhibitor therapy) is reported as “improved rapidly”; with corneal lesions (patient 4, corneal perforation, soft contact lens and antibiotics together with aprotinin), “led to healing”; in the series with corneal lesions (patient 7, Mooren's ulcer, 20 IU/ml, later (20 Jan on) 40 IU/ml hourly) it was “successfully treated”. Moreover, the “Complete epithelialization in” value turned out to be 48 h in the series on corneal lesions (patient 3, soft contact lens user, recurrent corneal erosion); 2 weeks with corneal lesions (patient 12, absc. corneae, Moraxella, antibiotics and aprotinin). Moreover, the “duration of corneal healing” value with corneal lesions (patient 4, keratitis sicca, corneal perforation and ulcer) is given as “six”. Also, the “ulcer area relative to original area” value with corneal lesions (patient 7, Mooren's ulcer, within a month after onset of aprotinin therapy) is “regressed into a third of its original area”. The “complete healing in” value with corneal lesions (patient 8, ulcus corneae, S. aureus, after onset of aprotinin) stood at 12 days. The epithelialization result in the series with corneal lesions (patient 9, deep corneal ulcer, topical antibiotics and aprotinin) was “rapid”. Besides, the “epithelialization in” value in the series on corneal lesions (patient 10, giant papillary conjunctivitis) is “one”. In addition, the “condition improved in” value in the series on corneal lesions (patient 14, blepharitis chronica) worked out at 1 week; in the series on corneal lesions (patient 15, conjunctivitis vernalis, punctate erosion) it was 5 days. In addition, in the series on corneal lesions (aprotinin therapy after failure of fibronectin), the therapeutic effect result is “rapid epithelization”.

Turning to fibronectin, the “time to healing of the epithelium” value with epithelium was “about 20 days”. Moreover, the “appearance of corneal erosion” value with corneal lesions (patient 1, topical fibronectin alone from Oct. 16, one day later) is “altered appearance”. Moreover, the therapeutic effect result was “no such therapeutic effect was observed” with corneal lesions (left eye, fibronectin applied 7 days later, tear fluid with plasmin-like activity); “clear beneficial effect and epithelial healing” in the series with corneal lesions (right eye, initial topical fibronectin, no proteolytic activity detected).

In the case of heparin, the Proteolytic plasmin-like activity in series [1] (setting [4]) is 11.9 µg/mL; in series [1] (setting [5]), 7.8 µg/mL; in series [1] (setting [6]), 7.2 µg/mL; in series [1] (setting [7]) it was 6.8 µg/mL. For the same molecule, the results for the “effect … of tear fluid” value in series [1] (setting [8]) and in series [1] (setting [9]) were “very little effect” and “no effect”, respectively. Also, the clinical effect entry with corneal lesions is given as “little or no clinical effect”.
